Test results reported in ChEMBL document CHEMBL1811787, “Identification of the binding modes of N-phenylphthalimides inhibiting bacterial thymidylate synthase through X-ray crystallography screening” (J Med Chem, 2011).
Activity calls are given as the source filed them. The calls are words filed in the database; no cut-off is given here.

What was measured:
Thymidylate synthase [1] = molecular target: T1, Thymidylate synthase (Lactobacillus casei, UniProt P00469); assay: Inhibition of Lactobacillus casei thymidylate synthase using N5,N10-methylene tetrahydrofolate by chromogenic assay; parameters: species or system Lacticaseibacillus casei
T1 sequence (P00469 whole entry): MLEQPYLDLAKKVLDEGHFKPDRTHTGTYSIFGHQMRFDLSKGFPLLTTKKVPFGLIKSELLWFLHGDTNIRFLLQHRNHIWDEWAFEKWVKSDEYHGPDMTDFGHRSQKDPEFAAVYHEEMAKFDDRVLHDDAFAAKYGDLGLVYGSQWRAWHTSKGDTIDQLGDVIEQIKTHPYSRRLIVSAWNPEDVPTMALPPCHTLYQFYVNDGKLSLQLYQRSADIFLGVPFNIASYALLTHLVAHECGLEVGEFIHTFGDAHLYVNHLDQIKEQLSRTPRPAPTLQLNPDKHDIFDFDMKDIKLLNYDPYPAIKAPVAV

Thymidylate synthase [2] = molecular target: T2, Thymidylate synthase (Homo sapiens, UniProt P04818); assay: Inhibition of human thymidylate synthase using N5,N10-methylene tetrahydrofolate at 50 uM by chromogenic assay
Target sequence in this assay (P04818 2-313 limits assumed): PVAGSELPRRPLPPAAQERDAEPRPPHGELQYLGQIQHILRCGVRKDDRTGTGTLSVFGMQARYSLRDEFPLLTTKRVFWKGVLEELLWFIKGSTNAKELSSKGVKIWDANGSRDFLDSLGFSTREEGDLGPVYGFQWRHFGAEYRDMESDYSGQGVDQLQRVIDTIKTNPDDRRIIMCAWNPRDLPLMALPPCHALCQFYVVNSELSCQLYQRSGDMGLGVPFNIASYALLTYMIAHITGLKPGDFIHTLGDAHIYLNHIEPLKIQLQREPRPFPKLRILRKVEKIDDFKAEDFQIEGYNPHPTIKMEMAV

[3] = molecular target: T3, Thymidylate synthase (Enterococcus faecalis (strain ATCC 700802 / V583)) (UniProt Q834R3); assay: Inhibition of Enterococcus faecalis thymidylate synthase using N5,N10-methylene tetrahydrofolate at 50 uM by chromogenic assay
T3 sequence (whole entry): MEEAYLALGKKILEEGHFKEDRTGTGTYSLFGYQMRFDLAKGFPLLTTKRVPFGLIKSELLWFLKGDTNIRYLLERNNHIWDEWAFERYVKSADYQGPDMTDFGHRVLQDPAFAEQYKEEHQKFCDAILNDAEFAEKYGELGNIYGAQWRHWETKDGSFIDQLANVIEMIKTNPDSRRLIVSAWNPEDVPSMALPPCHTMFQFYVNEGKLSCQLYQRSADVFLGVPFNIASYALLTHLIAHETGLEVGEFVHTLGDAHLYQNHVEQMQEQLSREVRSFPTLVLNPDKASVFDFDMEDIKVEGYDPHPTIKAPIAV

Thymidylate synthase [4] = molecular target: T4, Thymidylate synthase (Enterococcus faecalis (strain ATCC 700802 / V583), UniProt Q834R3); assay: Inhibition of Enterococcus faecalis thymidylate synthase using N5,N10-methylene tetrahydrofolate by chromogenic assay
T4 sequence (Q834R3 whole entry): T3 sequence (whole entry)

[5] = Inhibition of Escherichia coli thymidylate synthase using N5,N10-methylene tetrahydrofolate by chromogenic assay
Thymidylate synthase [6] = molecular target: T2, Thymidylate synthase
Target sequence in this assay (P04818 whole entry): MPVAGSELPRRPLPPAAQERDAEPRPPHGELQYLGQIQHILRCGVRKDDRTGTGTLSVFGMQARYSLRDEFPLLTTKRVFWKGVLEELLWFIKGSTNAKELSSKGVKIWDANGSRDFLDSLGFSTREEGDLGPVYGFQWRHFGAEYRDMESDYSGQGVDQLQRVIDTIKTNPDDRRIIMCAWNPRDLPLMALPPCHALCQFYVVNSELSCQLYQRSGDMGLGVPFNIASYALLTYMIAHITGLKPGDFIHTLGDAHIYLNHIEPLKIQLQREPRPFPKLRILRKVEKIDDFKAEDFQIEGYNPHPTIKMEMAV
Description: Inhibition of human thymidylate synthase using N5,N10-methylene tetrahydrofolate by chromogenic assay

[7] = molecular target: T5, Thymidylate synthase (Lactobacillus casei) (UniProt P00469); assay: Inhibition of Lactobacillus casei thymidylate synthase using N5,N10-methylene tetrahydrofolate at 50 uM by chromogenic assay; settings: Lacticaseibacillus casei
T5 sequence (whole entry): T1 sequence (P00469 whole entry)

Row | Structure (SMILES) | Ki (Thymidylate synthase [1]) [µM] | inhibition (Thymidylate synthase [2]) | inhibition [3] | Ki (Thymidylate synthase [4]) [µM] | Ki (Thymidylate synthase [6]) [µM] | inhibition [7] | Ki [5] [µM]
1 | Cc1cccc2c1C(=O)N(CCc1cccs1)C2=O | 44 | inactive | inactive | – | – | – | –
2 | CN1C(=O)c2cccc(CNc3ccc(C(=O)c4ccccc4)cc3)c2C1=O | 14 | inactive | inactive | – | – | – | 82
3 | CN1C(=O)c2cccc(CNCCP(=O)(O)O)c2C1=O | – | inactive | inactive | – | – | – | 14
4 | Cc1cccc2c1C(=O)OC2=O | – | inactive | inactive | – | – | inactive | 49
5 | CCOC(=O)c1ccc(NCc2cccc3c2C(=O)N(C)C3=O)cc1 | 56 | inactive | – | 109 | – | – | –
6 | CN1C(=O)c2cccc(CNCCc3cccs3)c2C1=O | – | inactive | inactive | – | – | – | 61
7 | O=C1OC(c2ccc(O)c(Cl)c2)(c2ccc(O)c(Cl)c2)c2cccc3cccc1c23 | – | – | – | – | – | – | 0.6
8 | Cc1cccc2c1C(=O)N(c1ccc(C(F)(F)F)cc1)C2=O | 14 | inactive | – | 60 | – | – | 18
9 | Cc1cccc2c1C(=O)N(c1cccc(O)c1)C2=O | 93 | inactive | – | 61 | – | – | –
10 | CN1C(=O)c2cccc(CNc3cccc(S(N)(=O)=O)c3)c2C1=O | 38 | inactive | inactive | – | – | – | –
11 | CN1C(=O)c2cccc(CNc3ccc([N+](=O)[O-])c4ccccc34)c2C1=O | 10 | inactive | inactive | – | – | – | 92
12 | Cc1cccc2c1C(=O)N(c1ccc(C(=N)N)cc1)C2=O | 9 | inactive | inactive | – | – | – | –
13 | CN1C(=O)c2cccc(CBr)c2C1=O | 95 | inactive | inactive | – | – | – | –
14 | Cc1cccc2c1C(=O)N(c1ccnc(Cl)c1)C2=O | 23 | inactive | – | 7 | – | – | 111
15 | Cc1cc(N2C(=O)c3cccc(C)c3C2=O)ccc1N1C(=O)c2ccc(Cl)cc2C1=O | 36 | inactive | inactive | – | – | – | 33
16 | CN1C(=O)c2cccc(CNc3ccc(C(=O)O)cn3)c2C1=O | 27 | inactive | inactive | – | – | – | –
17 | Cc1cccc2c1C(=O)N(c1cc(-c3ccccc3)ccc1O)C2=O | 3 | – | – | 2 | – | – | 3
18 | Cc1cccc2c1C(=O)N(c1ccc(C(=O)NCC(=O)O)cc1)C2=O | 3 | – | – | 11 | – | – | 42
19 | CN1C(=O)c2cccc(CNc3ccc(C#N)cc3)c2C1=O | 51 | inactive | inactive | – | – | – | –

Further compounds by falling Ki (Thymidylate synthase [1]), results first:

Row | Ki (Thymidylate synthase [1]) [µM] | inhibition (Thymidylate synthase [2]) | inhibition [3] | Ki (Thymidylate synthase [4]) [µM] | Ki (Thymidylate synthase [6]) [µM] | inhibition [7] | Structure (SMILES) | Ki [5] [µM]
20 | 69 | – | inactive | – | – | – | Cc1cccc2c1C(=O)N(c1cccc(C(=O)O)c1)C2=O | –
21 | 41 | – | – | 183 | – | – | COCCCNCc1cccc2c1C(=O)N(C)C2=O | –
22 | 34 | – | – | 33 | 206 | – | Cc1cccc2c1C(=O)N(c1ccc(-n3ccnc3)cc1)C2=O | –
23 | 33 | – | inactive | – | – | – | CN1C(=O)c2cccc(CNc3ccc(S(=O)(=O)O)cc3)c2C1=O | 42
24 | 25 | inactive | – | 26 | – | – | Cc1cccc2c1C(=O)N(c1cccc3[nH]ccc13)C2=O | –
25 | 22 | inactive | – | 8 | – | – | Cc1cccc2c1C(=O)N(c1ccc(C#N)cc1)C2=O | 31
26 | 20 | inactive | inactive | – | – | – | Cc1cccc2c1C(=O)N(c1cc(C(=O)O)cc(C(=O)O)c1)C2=O | –
27 | 14 | – | inactive | – | – | – | Cc1cccc2c1C(=O)N(c1ccc(C(=O)O)c(O)c1)C2=O | 36
28 | 6 | inactive | inactive | – | – | – | CC(=O)c1ccc(N2C(=O)c3cccc(C)c3C2=O)cc1 | 41
29 | 3 | inactive | – | 11 | – | – | Cc1cccc2c1C(=O)N(c1nccs1)C2=O | –
